Source: patent US20120059162A1, “FUSED IMIDAZOLE DERIVATIVE HAVING TTK INHIBITORY ACTION” (Oncotherapy Science, Inc., priority 2009, published 2012)
Like-named read-outs stand apart in the source and are kept apart here.

Tests used:
TTK = target: T1, TTK (Homo sapiens, UniProt P33981); assay: TTK assay: screening of TTK kinase activity suppressing action using p38 MAPK peptide; format: biochemical; settings: read-out: TTK IC50
T1 sequence (P33981 1-857): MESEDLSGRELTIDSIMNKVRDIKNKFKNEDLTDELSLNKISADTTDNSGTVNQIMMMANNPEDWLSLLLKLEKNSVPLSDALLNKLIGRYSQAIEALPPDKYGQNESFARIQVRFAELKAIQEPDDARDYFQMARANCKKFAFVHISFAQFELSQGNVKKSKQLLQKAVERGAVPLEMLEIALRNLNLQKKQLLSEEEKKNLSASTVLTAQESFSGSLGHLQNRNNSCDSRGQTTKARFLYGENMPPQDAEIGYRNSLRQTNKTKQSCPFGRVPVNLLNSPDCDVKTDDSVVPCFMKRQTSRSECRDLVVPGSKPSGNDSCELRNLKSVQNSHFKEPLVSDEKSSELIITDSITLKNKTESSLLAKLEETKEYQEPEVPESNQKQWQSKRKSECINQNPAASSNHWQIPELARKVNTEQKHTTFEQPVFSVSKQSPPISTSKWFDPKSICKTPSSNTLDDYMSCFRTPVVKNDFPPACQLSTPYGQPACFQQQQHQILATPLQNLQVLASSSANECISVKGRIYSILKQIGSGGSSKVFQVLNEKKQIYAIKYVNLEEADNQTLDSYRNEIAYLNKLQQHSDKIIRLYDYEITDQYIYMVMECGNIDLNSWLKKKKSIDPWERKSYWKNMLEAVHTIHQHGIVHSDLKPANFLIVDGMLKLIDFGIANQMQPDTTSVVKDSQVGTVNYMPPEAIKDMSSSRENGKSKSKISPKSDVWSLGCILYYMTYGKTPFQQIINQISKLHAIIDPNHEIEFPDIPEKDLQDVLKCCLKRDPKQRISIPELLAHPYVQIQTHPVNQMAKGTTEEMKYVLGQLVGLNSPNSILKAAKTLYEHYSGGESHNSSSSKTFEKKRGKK
Description: Screening of a compound having a TTK kinase activity suppressing action using p38 MAPK peptide
A test substance 1.0 μL (solvent: 10% (v/v) DMSO), TTK solution 5 μL (composition: 4 μg/ml TTK, 25 mM Tris-HCl, pH7.5, 5 mM β-glycerophosphate, 2 mM DTT, 0.1 mM Na3VO4, 5 mM MgCl2, 0.1% (w/v)BSA) and a substrate solution 5 μL (composition: 60 μM p38 MAPK peptide, 60 μM ATP, 25 mM Tris-HCl, pH7.5, 5 mM β-glycerophosphate, 2 mM DTT, 0.1 mM Na3VO4, 5 mM MgCl2, 0.1% (w/v)BSA) were mixed in the wells of a 384-well microtiter plate (manufactured by Corning Incorporated) made of polypropylene and loaded in a constant temperature and humidity room.
From the resultant mixture, an aliquot of 1.7 μL was taken out and mixed with the reaction terminating solution (60 μl) in the wells of a 384-well microtiter plate (manufactured by Corning Incorporated) made of polypropylene. Thereafter, 40 μL of the mixture was transferred to a 384-well black NeutrAvidin plate (PIERCE), sealed and incubated under room temperature for 30 minutes. […] Similarly, the plate was washed with TTBS (100 μL) three times, 40 μl of a secondary antibody solution (Eu-N1 labeled Anti-mouse IgG (Perkin Elmer, #AD0124)) was added and incubated under room temperature for 30 minutes. After the plate was washed with TTBS (100 μL) five times, 40 μL of an enhance solution (Perkin Elmer) was added and incubated under room temperature for 5 minutes. […] Based on the fluorescence value in the absence of a test substance, the suppression activity of a test substance was measured.

A549 = A549 assay: screening of cancer cell growth inhibiting compound; format: cell-based; settings: Homo sapiens, A549 cells, read-out: A549 IC50
Description: Screening of Cancer Cell Growth Inhibiting Compound
A cell suspension solution (RERF-LC-AI, A549: 1×10^4/ml, MRC5: 3×10^4/ml and 1×10^5/ml) adjusted to an appropriate concentration with D-MEM (hereinafter, referred to as a culture solution and manufactured by Nacalai Tesque Inc.) supplemented with 10% FBS (HyClone) was added to the wells of a 96-well plate (hereinafter, well plate) at a rate of 100 μL/well and incubated in a CO2 incubator at 37° C. for a day. […] Next, cells were added to each well of the well plate prepared and the above compound dilution solution was added at a rate of 100 μL/well to obtain 200 μL/well. Thereafter, the cells were incubated in the CO2 incubator at 37° C. for further three days. To each well of the well plate, 10 μL of a WST-8 kit (Kishida Chemical Co., Ltd.) solution for counting the number of cells was added and a color reaction was performed in the CO2 incubator for 1 to 4 hours. After the absorbance at 450 nm (reference wavelength: 620 nm) was measured by a microplate reader, suppressing action of the test substance was calculated based on the absorbance value in the absence of a test substance.

| SMILES | IC50 (TTK; p38 MAPK peptide substrate) | IC50 (A549; 72 h, three days, WST-8) | IC50 (TTK) | IC50 (A549; values given as IC50 intervals) |
| --- | --- | --- | --- | --- |
| O=C(NC1CC1)c1ccc(-c2cnc3c(NCc4cccnc4)cc(NC4CCCCC4)nn23)cc1 [Example 2-156] | 4.4 nM | 50 to 500 nM | – | – |
| C#CC(C)(C)Nc1cc(NCC2CCOCC2)c2ncc(-c3ccc(C(=O)NC4CC4)cc3)n2n1 [Example 2-85] | 4 nM | 1000 to 10000 nM | – | – |
| N#Cc1ccc(-c2cn3c(-c4ccc(C(=O)NC5CC5)cc4)cnc3c(NCCCO)n2)cc1 [Example 1-218] | 14.4 nM | 50 to 500 nM | – | – |
| O=C(NC1CC1)c1ccc(-c2cnc3c(NCC4CCOCC4)cc(OC4CCNCC4)nn23)cc1 [Example 2-180] | – | – | 12.2 nM | 1000 to 10000 nM |
| COCC(C)Nc1cc(NCC2CCOCC2)c2ncc(-c3ccc(C(=O)NC4CC4)cc3)n2n1 (centres unmarked) [Example 2-52] | 17.8 nM | 50 to 500 nM | – | – |
| CC(C)C(C)(C)Nc1cc(NCC2CCOCC2)c2ncc(-c3ccc(C(=O)NC4CC4)cc3)n2n1 [Example 2-82] | 6 nM | ≤ 50 nM | – | – |
| O=C(NC1CC1)c1ccc(-c2cnc3c(NCC4CCOCC4)cc(NC45CC6CC(CC4C6)C5)nn23)cc1 [Example 2-37] | 2.7 nM | ≤ 50 nM | – | – |
| O=C(NC1CC1)c1ccc(-c2cnc3c(NCC4CCOCC4)cc(NC4CCCC4)nn23)cc1F [Example 2-228] | – | – | 3.6 nM | 50 to 500 nM |
| O=C(NC1CC1)c1ccc(-c2cnc3c(NCC4(O)CCOCC4)cc(NC4CCCCC4)nn23)cc1 [Example 2-169] | – | – | 7.2 nM | 50 to 500 nM |
| O=C(NC1CC1)c1ccc(-c2cnc3c(NCC4CCOCC4)cc(N4CCCC4)nn23)cc1 [Example 2-53] | 25.9 nM | 1000 to 10000 nM | – | – |
| COC[C@@H]1CCCN1c1cc(NCC2CCOCC2)c2ncc(-c3ccc(C(=O)NC4CC4)cc3)n2n1 [Example 2-66] | 4.5 nM | 50 to 500 nM | – | – |
| O=C(NC1CC1)c1ccc(-c2cnc3c(NCC4CCOCC4)cc(N4CCCCS4(=O)=O)nn23)cc1 [Example 2-40] | 7.5 nM | 50 to 500 nM | – | – |
| CCCNc1cc(NCC2CCOCC2)c2ncc(-c3ccc(C(=O)NC4CC4)cc3)n2n1 [Example 2-21] | 7 nM | 50 to 500 nM | – | – |
| N#Cc1ccc(-c2cc(NCC3CCOCC3)c3ncc(-c4ccc(C(=O)NC5CC5)cc4)n3n2)c(Cl)c1 [Example 2-206] | – | – | 2.8 nM | 50 to 500 nM |
| O=C(NC1CC1)c1ccc(-c2cnc3c(NCC4CCOCC4)cc(NC4CC5CCCC(C5)C4)nn23)cc1 (centres unmarked) [Example 2-38] | 4.5 nM | ≤ 50 nM | – | – |
| N#Cc1ccc(-c2cn3c(-c4ccc(C(=O)NC5CC5)cc4)cnc3c(NCCN3CCOCC3)n2)cc1 [Example 1-216] | 20.4 nM | 50 to 500 nM | – | – |
| CCC(C)(C)Nc1cc(NCC2CCOCC2)c2ncc(-c3ccc(C(=O)NC4CC4)cc3)n2n1 [Example 2-68] | 2.9 nM | ≤ 50 nM | – | – |
| Nc1c(F)cccc1Oc1cc(NCC2CCOCC2)c2ncc(-c3ccc(C(=O)NC4CC4)cc3)n2n1 [Example 2-98] | 2.4 nM | ≤ 50 nM | – | – |
| CC(C)CCNc1cc(NC2CCCCC2)nn2c(-c3ccc(C(=O)NC4CC4)cc3)cnc12 [Example 2-139] | 10.5 nM | 50 to 500 nM | – | – |
| O=C(NC1CC1)c1ccc(-c2cnc3c(NCC4CCOCC4)cc(Oc4ccccc4Cl)nn23)cc1 [Example 2-90, 4-(6-(2-Chlorophenoxy)-8-((tetrahydro-2H-pyran-4-yl)methylamino)imidazo[1,2-b]pyridazin-3-yl)-N-cyclopropylbenzamide] | 2.7 nM | 50 to 500 nM | – | – |

| SMILES | IC50 (TTK; p38 MAPK peptide substrate) | IC50 (A549; 72 h, three days, WST-8) | IC50 (TTK) | IC50 (A549; values given as IC50 intervals) |
| --- | --- | --- | --- | --- |
| COc1cc(NCC2CCOCC2)c2ncc(-c3ccc(C(=O)NC4CC4)cc3)n2n1 [Example 2-172] | – | – | 20.3 nM | 500 to 1000 nM |
| Cc1cc(C#N)ccc1-c1cc(NCC2CCOCC2)c2ncc(-c3ccc(C(=O)NC4CC4)cc3)n2n1 [Example 2-202] | – | – | 3.5 nM | 50 to 500 nM |
| O=C(NC1CC1)c1ccc(-c2cnc3c(NCC4CCOCC4)cc(N4CCCC4=O)nn23)cc1 [Example 2-39] | 22 nM | 50 to 500 nM | – | – |
| O=C(NC1CC1)c1ccc(-c2cnc3c(NCC4CCOCC4)cc(NC4CCCC(F)(F)C4)nn23)cc1 (centres unmarked) [Example 2-80] | 4 nM | ≤ 50 nM | – | – |
| CC(C)CN(CC1CC1)c1cc(NCC2CCOCC2)c2ncc(-c3ccc(C(=O)NC4CC4)cc3)n2n1 [Example 2-33] | 5.4 nM | 500 to 1000 nM | – | – |
| O=C(NC1CC1)c1ccc(-c2cnc3c(NCC4CCOCC4)cc(OCC(F)(F)F)nn23)cc1 [Example 2-183] | – | – | 5.7 nM | 50 to 500 nM |
| O=C(NC1CC1)c1ccc(-c2cnc3c(NCCSCCO)cc(NC4CCCCC4)nn23)cc1 [Example 2-136] | 7.3 nM | 50 to 500 nM | – | – |
| O=C(NC1CC1)c1ccc(-c2cnc3c(NCc4ccc(=O)[nH]c4)cc(NC4CCCCC4)nn23)cc1 [Example 2-165] | 5.6 nM | 1000 to 10000 nM | – | – |
| CC(C)(C)CC(C)(C)Nc1cc(NCC2CCOCC2)c2ncc(-c3ccc(C(=O)NC4CC4)cc3)n2n1 [Example 2-81] | 4 nM | ≤ 50 nM | – | – |
| O=C(NC1CC1)c1ccc(-c2cnc3c(NCc4ccc(F)cc4)cc(NC4CCCCC4)nn23)cc1 [Example 2-134] | 6.6 nM | 50 to 500 nM | – | – |
| O=C(NC1CC1)c1ccc(-c2cnc3c(NCC4CCOCC4)cc(NCC4CCCCC4)nn23)cc1 [Example 2-16] | 4.8 nM | 50 to 500 nM | – | – |
| CC(C)(Nc1cc(NCC2CCOCC2)c2ncc(-c3ccc(C(=O)NC4CC4)c(F)c3)n2n1)C(F)(F)F [Example 2-219] | – | – | 4.3 nM | ≤ 50 nM |
| CC(C)C(C)Nc1cc(NCC2CCOCC2)c2ncc(-c3ccc(C(=O)NC4CC4)cc3)n2n1 (centres unmarked) [Example 2-55] | 4.9 nM | 50 to 500 nM | – | – |
| CC1(C)CCC(Oc2cc(NCC3CCOCC3)c3ncc(-c4ccc(C(=O)NC5CC5)cc4)n3n2)CC1 [Example 2-187] | – | – | 7.8 nM | 500 to 1000 nM |
| N#Cc1ccc(-c2cn3c(-c4ccc(C(=O)NC5CC5)cc4)cnc3c(NCc3cccs3)n2)cc1 [Example 1-212] | 7.2 nM | 50 to 500 nM | – | – |
| O=C(NC1CC1)c1ccc(-c2cnc3c(NCC4CCOCC4)cc(N4CCOCC4)nn23)cc1 [Example 2-14] | 9.3 nM | 50 to 500 nM | – | – |
| COC1CCN(c2cc(NCC3CCOCC3)c3ncc(-c4ccc(C(=O)NC5CC5)cc4)n3n2)CC1 [Example 2-26] | 8.9 nM | 50 to 500 nM | – | – |
| CC1(Nc2cc(NCC3CCOCC3)c3ncc(-c4ccc(C(=O)NC5CC5)cc4)n3n2)CCS(=O)(=O)C1 (centres unmarked) [Example 2-72] | 3.9 nM | 50 to 500 nM | – | – |
| Cc1cc(C(=O)NC2CC2)ccc1-c1cnc2c(NCC3CCOCC3)cc(NC3CCCC3)nn12 [Example 2-226] | – | – | 6.9 nM | 50 to 500 nM |
| N#Cc1ccc(-c2cn3c(-c4ccc(C(=O)NC5CC5)cc4)cnc3c(NCCSCCO)n2)cc1 [Example 1-214] | 6.7 nM | 50 to 500 nM | – | – |
